# Experimental data published in publication PMC10056257 (Journal of medicinal chemistry, 2023).
# Marks after values point to notes of the source that are not given here.
# Experiments:
# [1] = test system: S. aureus USA 300 JE2; test: MIC, broth microdilution; format: cell-based, Staphylococcus aureus
# [2] = test system: Escherichia coli K12; test: MIC, broth microdilution; format: cell-based; conditions: E. coli K12
# [3] = test system: Lactobacillus rhamnosus CGMCC 1.3724; test: MIC against L. rhamnosus; format: cell-based; conditions: L. rhamnosus CGMCC 1.3724
# [4] = test system: Pseudomonas aeruginosa PA01; test: MIC, broth microdilution; format: cell-based; conditions: P. aeruginosa PA01
# [5] = test system: Acinetobacter baumannii 2208; test: MIC, broth microdilution; format: cell-based; conditions: A. baumannii 2208
# [6] = test system: Anaerostipes caccae DSM 14662; test: MIC against anaerobic bacteria; format: cell-based; conditions: A. caccae DSM 14662, anaerobic
# [7] = test system: Bacteroides thetaiotaomicron DSM 2079; test: MIC against anaerobic bacteria; format: cell-based; conditions: B. thetaiotaomicron DSM 2079, anaerobic
# [8] = test system: E. coli nonpathogenic ATCC MG1655; test: MIC determination; format: cell-based, Escherichia coli
# [9] = test system: Lactobacillus plantarum DSM 20174; test: MIC against L. plantarum; format: cell-based; conditions: L. plantarum DSM 20174
# [10] = Simulated intestinal fluid stability; format: in vitro ADME; conditions: SIF pH 7.60 with pancreatin, 24 h
# [11] = test system: Methicillin-resistant S. aureus (MRSA) ClpX; conditions: read-out: IC50, ClpX ATPase activity; cited from earlier work
# [12] = test system: S. typhimurium TA100; conditions: positive control, TA100, S9−, 2.5 μg/plate
molecule,measurement,setting,value
"N#Cc1ccccc1C1Sc2ccccc2NC2=C1C(=O)c1ccccc12 (stereo not shown) [5a, 2-(12-Oxo-11,12-dihydro-5H-benzo[b]indeno[1,2-e][1,4]thiazepin-11-yl)benzonitrile]",MIC,[1],inactive
same,MIC,[2],inactive
same,MIC,[3],no antibacterial activity
same,MIC,[4],inactive
same,MIC,[5],inactive
same,MIC,[6],completely inactive
same,MIC,[7],completely inactive
same,MIC,[8],completely inactive
same,MIC,[9],no antibacterial activity
same,percentage of drug remaining,[10],around 85%
"CC[C@H]1OC(=O)[C@H](C)[C@@H](O[C@H]2C[C@@](C)(OC)[C@@H](O)[C@H](C)O2)[C@H](C)[C@@H](O[C@@H]2O[C@H](C)C[C@H](N(C)C)[C@H]2O)[C@](C)(O)C[C@@H](C)CN(C)[C@H](C)[C@@H](O)[C@]1(C)O [AZM, azithromycin, reference compound]",MIC,[6],no susceptibility
"O=C1C2=C(Nc3ccccc3SC2c2cccc(O)c2)c2ccccc21 (stereo not shown) [compound 334, 11-(3-Hydroxyphenyl)-5,11-dihydro-12H-benzo[b]indeno[1,2-e][1,4]thiazepin-12-one]",IC50,[11],800 nM
Sodium azide,number of revertants/plate,[12],260.70 ± 15.30^e revertants/plate
